In patent US7968556B2, “Heteroaryl compounds, compositions thereof, and methods of treatment therewith” (Signal Pharmaceuticals, LLC, priority 2006, dated 2011):

| melting point | Structure (SMILES) |
| --- | --- |
| 190 to 191 °C | COc1ccccc1-n1c(=O)[nH]c2c(C(N)=O)nc(Nc3cccc(O)c3)nc21 [Compound 45, 2-(3-Hydroxyphenylamino)-9-(2-methoxyphenyl)-8-oxo-8,9-dihydro-7H-purine-6-carboxamide] |
| 223 to 224 °C | COc1ccccc1-n1c(=O)[nH]c2c(C(N)=O)nc(Nc3ccc(O)cc3)nc21 [Compound 46, 2-(4-Hydroxyphenylamino)-9-(2-methoxyphenyl)-8-oxo-8,9-dihydro-7H-purine-6-carboxamide] |
| 331 to 333 °C | NC(=O)c1nc(-c2cccnc2)nc2c1[nH]c(=O)n2[C@H]1CC[C@H](O)CC1 [Compound 48, 9-(trans-4-Hydroxycyclohexyl)-8-oxo-2-(pyridin-3-yl)-8,9-dihydro-7H-purine-6-carboxamide] |
| 373 to 375 °C | NC(=O)c1nc(-c2cccc(O)c2)nc2c1[nH]c(=O)n2[C@H]1CC[C@H](O)CC1 [Compound 49, 9-(trans-4-Hydroxycyclohexyl)-2-(3-hydroxyphenyl)-8-oxo-8,9-dihydro-7H-purine-6-carboxamide] |
| 155 to 157 °C | COc1ccccc1-n1cnc2c(C(N)=O)nc(Nc3cccc(O)c3)nc21 [Compound 51, 2-(3-Hydroxyphenylamino)-9-(2-methoxyphenyl)-9H-purine-6-carboxamide] |
| 316 to 318 °C | COc1ccccc1-n1c(=O)[nH]c2c(C(N)=O)nc(-c3cccc(C#N)c3)nc21 [Compound 55, 2-(3-Cyanophenyl)-9-(2-methoxyphenyl)-8-oxo-8,9-dihydro-7H-purine-6-carboxamide] |
| 314 to 315 °C | COc1ccccc1-n1c(=O)[nH]c2c(C(N)=O)nc(Nc3ccccc3O)nc21 [Compound 56, 2-(2-Hydroxyphenylamino)-9-(2-methoxyphenyl)-8-oxo-8,9-dihydro-7H-purine-6-carboxamide] |
| 355 to 357 °C | COc1ccc(-n2c(=O)[nH]c3c(C(N)=O)nc(-c4cccc(O)c4)nc32)c(C)c1 [Compound 57, 2-(3-Hydroxyphenyl)-9-(4-methoxy-2-methylphenyl)-8-oxo-8,9-dihydro-7H-purine-6-carboxamide] |
| 363 to 365 °C | NC(=O)c1nc(-c2cccc(O)c2)nc2c1[nH]c(=O)n2-c1ccccc1C(F)(F)F [Compound 58, 2-(3-Hydroxyphenyl)-8-oxo-9-(2-(trifluoromethyl)phenyl)-8,9-dihydro-7H-purine-6-carboxamide] |
| 335 to 338 °C | COc1ccccc1-n1c(=O)[nH]c2c(C(N)=O)nc(-c3ccc(C#N)cc3)nc21 [Compound 59, 2-(4-Cyano-phenyl)-9-(2-methoxy-phenyl)-8-oxo-8,9-dihydro-7H-purine-6-carboxamide] |
| 265 to 266 °C | COC(=O)c1cccc(-c2nc(C(N)=O)c3[nH]c(=O)n(-c4ccccc4OC)c3n2)c1 [Compound 61, Methyl 3-(6-carbamoyl-9-(2-methoxyphenyl)-8-oxo-8,9-dihydro-7H-purin-2-yl)benzoate] |
| 348 to 350 °C | COc1ccccc1-n1c(=O)[nH]c2c(C(N)=O)nc(-c3cccc(C(=O)O)c3)nc21 [Compound 62, 3-(6-Carbamoyl-9-(2-methoxyphenyl)-8-oxo-8,9-dihydro-7H-purin-2-yl)benzoic acid] |
| > 350 °C | COc1ccccc1-n1c(=O)[nH]c2c(C(N)=O)nc(-c3ccc(C(N)=O)cc3)nc21 [Compound 65, 2-(4-Carbamoylphenyl)-9-(2-methoxyphenyl)-8-oxo-8,9-dihydro-7H-purine-6-carboxamide] |
| 338 to 339 °C | COc1ccccc1-n1c(=O)[nH]c2c(C(N)=O)nc(-c3cccc(C(N)=O)c3)nc21 [Compound 68, 2-(3-Carbamoylphenyl)-9-(2-methoxyphenyl)-8-oxo-8,9-dihydro-7H-purine-6-carbox amide] |
| 278 to 280 °C | COc1ccccc1-n1cnc2c(C(N)=O)nc(-c3ccccc3O)nc21 [Compound 70, 2-(2-Hydroxyphenyl)-9-(2-methoxyphenyl)purine-6-carboxamide] |
| 318 to 320 °C | COc1ccccc1-n1c(=O)[nH]c2c(C(N)=O)nc(-c3ccncc3)nc21 [Compound 75, 9-(2-Methoxyphenyl)-8-oxo-2-(pyridin-4-yl)-8,9-dihydro-7H-purine-6-carboxamide] |
| 306 °C | COc1ccccc1-n1c(=O)[nH]c2c(C(N)=O)nc(-c3ccc4nc[nH]c4c3)nc21 [Compound 91, 2-(1H-Benzo[d]imidazol-6-yl)-9-(2-methoxyphenyl)-8-oxo-8,9-dihydro-7H-purine-6-carboxamide] |
| 348 to 352 °C (dec.) | NC(=O)c1nc(-c2ccc(O)nc2)nc2c1[nH]c(=O)n2-c1ccccc1C(F)(F)F [Compound 100, 2-(6-Hydroxypyridin-3-yl)-8-oxo-9-(2-(trifluoromethyl)phenyl)-8,9-dihydro-7H-purine-6-carboxamide] |

| melting point | Structure (SMILES) |
| --- | --- |
| 230 to 232 °C | NC(=O)c1nc(-c2cncc(Cl)c2)nc2c1[nH]c(=O)n2-c1ccccc1C(F)(F)F [Compound 103, 2-(5-Chloropyridin-3-yl)-8-oxo-9-(2-(trifluoromethyl)phenyl)-8,9-dihydro-7H-purine-6-carboxamide] |
| > 400 °C | COc1ccccc1-n1c(=O)[nH]c2c(C(N)=O)nc(N[C@@H]3CCNC3)nc21 [Compound 105, (R)-9-(2-Methoxyphenyl)-8-oxo-2-(pyrrolidin-3-ylamino)-8,9-dihydro-7H-purine-6-carboxamide] |
| > 400 °C | COc1ccccc1-n1c(=O)[nH]c2c(C(N)=O)nc(N[C@H]3CCNC3)nc21 [Compound 106, (S)-9-(2-Methoxyphenyl)-8-oxo-2-(pyrrolidin-3-ylamino)-8,9-dihydro-7H-purine-6-carboxamide] |
| 165 to 167 °C | COc1ccccc1-n1c(=O)[nH]c2c(C(N)=O)nc(N[C@H]3CC[C@H](O)CC3)nc21 [Compound 108, 2-(trans-4-Hydroxycyclohexylamino)-9-(2-methoxyphenyl)-8-oxo-8,9-dihydro-7H-purine-6-carboxamide] |
| 244 to 248 °C (dec.) | NC(=O)c1nc(-c2cnccc2Cl)nc2c1[nH]c(=O)n2-c1ccccc1C(F)(F)F [Compound 109, 2-(4-Chloropyridin-3-yl)-8-oxo-9-(2-(trifluoromethyl)phenyl)-8,9-dihydro-7H-purine-6-carboxamide] |
| 295 to 297 °C | COc1ccccc1-n1c(=O)[nH]c2c(C(N)=O)nc(N[C@H]3CC[C@@H](O)CC3)nc21 [Compound 110, 2-(cis-4-Hydroxycyclohexylamino)-9-(2-methoxyphenyl)-8-oxo-8,9-dihydro-7H-purine-6-carboxamide] |
| 165 to 170 °C | COc1ccccc1-n1c(=O)[nH]c2c(C(N)=O)nc(Nc3ccc(Cn4ccnc4)cc3)nc21 [Compound 111, 2-(4-((1H-Imidazol-1-yl)methyl)phenylamino)-9-(2-methoxyphenyl)-8-oxo-8,9-dihydro-7H-purine-6-carboxamide] |
| 155 to 157 °C | COc1ccccc1-n1c(=O)[nH]c2c(C(N)=O)nc(NC[C@H]3CCCN3)nc21 [Compound 113, (R)-9-(2-Methoxyphenyl)-8-oxo-2-(pyrrolidin-2-ylmethylamino)-8,9-dihydro-7H-purine-6-carboxamide] |
| 160 to 165 °C | COc1ccccc1-n1c(=O)[nH]c2c(C(N)=O)nc(NC[C@@H]3CCCN3)nc21 [Compound 114, (S)-9-(2-Methoxyphenyl)-8-oxo-2-(pyrrolidin-2-ylmethylamino)-8,9-dihydro-7H-purine-6-carboxamide] |
| 157 to 160 °C | COc1ccccc1-n1c(=O)[nH]c2c(C(N)=O)nc(NCCO)nc21 [Compound 116, 2-(2-Hydroxyethylamino)-9-(2-methoxyphenyl)-8-oxo-8,9-dihydro-7H-purine-6-carboxamide] |
| 220 to 222 °C | COc1ccccc1-n1c(=O)[nH]c2c(C(N)=O)nc(-c3ccc4nc(C(F)(F)F)[nH]c4c3)nc21 [Compound 117, 9-(2-Methoxyphenyl)-8-oxo-2-(2-(trifluoromethyl)-1H-benzo[d]imidazol-6-yl)-8,9-dihydro-7H-purine-6-carboxamide] |
| 293 to 296 °C | NC(=O)c1nc(-c2cccc(O)c2)nc2c1[nH]c(=O)n2-c1ccccc1-c1ccccc1 [Compound 119, 9-(Biphenyl-2-yl)-2-(3-hydroxyphenyl)-8-oxo-8,9-dihydro-7H-purine-6-carboxamide] |
| 368 °C | CC(C)c1ccccc1-n1c(=O)[nH]c2c(C(N)=O)nc(-c3ccc(-c4nc[nH]n4)cc3)nc21 [Compound 121, 2-(4-(1H-1,2,4-Triazol-3-yl)phenyl)-9-(2-isopropylphenyl)-8-oxo-8,9-dihydro-7H-purine-6-carboxamide] |
| 270 °C | COc1ccccc1-n1c(=O)[nH]c2c(C(N)=O)nc(-c3ccc4nc(C)[nH]c4c3)nc21 [Compound 122, 9-(2-Methoxyphenyl)-2-(2-methyl-1H-benzo[d]imidazol-6-yl)-8-oxo-8,9-dihydro-7H-purine-6-carboxamide] |
| 237 to 239 °C | COc1ccccc1-n1c(=O)[nH]c2c(C(N)=O)nc(Nc3cccc(CO)c3)nc21 [Compound 123, 2-(3-(Hydroxymethyl)phenylamino)-9-(2-methoxyphenyl)-8-oxo-8,9-dihydro-7H-purine-6-carboxamide] |
| 159 to 162 °C | COc1ccccc1-n1c(=O)[nH]c2c(C(N)=O)nc(Nc3ccccc3CO)nc21 [Compound 124, 2-(2-(Hydroxymethyl)phenylamino)-9-(2-methoxyphenyl)-8-oxo-8,9-dihydro-7H-purine-6-carboxamide] |
| 294 to 297 °C | CC(C)(C)c1ccccc1-n1c(=O)[nH]c2c(C(N)=O)nc(-c3cccc(O)c3)nc21 [Compound 125, 9-(2-tert-Butylphenyl)-2-(3-hydroxyphenyl)-8-oxo-8,9-dihydro-7H-purine-6-carboxamide] |
| 329 to 331 °C | NC(=O)c1nc(-c2cccc(O)c2)nc2c1[nH]c(=O)n2-c1ccccc1Oc1ccccc1 [Compound 126, 2-(3-Hydroxyphenyl)-8-oxo-9-(2-phenoxyphenyl)-8,9-dihydro-7H-purine-6-carboxamide] |
